How the values were obtained:
Assay in all cases: relative viability (nuclei count vs DMSO), 5 days (fraction); higher = more cells survive
Sulindac + Decitabine = compound: CC1=C(CC(=O)O)c2cc(F)ccc2/C1=C\c1ccc([S+](C)[O-])cc1 [Sulindac] + Nc1ncn([C@H]2C[C@H](O)[C@@H](CO)O2)c(=O)n1 [Decitabine] (partner 2 µM)
In short: (§1)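 Lung cancer cell lines were pin-tool dosed in 1536-well plates on the day after seeding, with either a lone drug or a fixed anchor-drug dose plus five library-drug doses (not always all listed) in √10 steps. Nuclei were counted on 4× images after 5 days. Relative viability is the ratio of treated-well to vehicle-well nuclei counts, with each value a median of duplicate plates.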

[1] = compound: CN[C@@H]1C[C@H]2O[C@@](C)([C@@H]1OC)n1c3ccccc3c3c4c(c5c6ccccc6n2c5c31)C(=O)NC4 [Staurosporine] + Cc1nc(Nc2ncc(C(=O)Nc3c(C)cccc3Cl)s2)cc(N2CCN(CCO)CC2)n1 [Dasatinib] (partner 0.075 µM)
In short: as §1

[2] = compound: O=c1[nH]cc(F)c(=O)[nH]1 [5-Fluorouracil] + CC(C)C[C@H](NC(=O)[C@H](Cc1ccccc1)NC(=O)c1cnccn1)B(O)O [Bortezomib] (partner 0.002 µM)
In short: as §1

[3] = compound: O=c1[nH]cc(F)c(=O)[nH]1 [5-Fluorouracil] + CC(=O)Nc1cccc(-n2c(=O)n(C3CC3)c(=O)c3c(Nc4ccc(I)cc4F)n(C)c(=O)c(C)c32)c1 [Trametinib] (partner 0.02 µM)
In short: as §1

Cell Line	relative viability (Sulindac + Decitabine; first compound 0.08 µM)	relative viability (Sulindac + Decitabine; first compound 0.253 µM)	relative viability (Sulindac + Decitabine; first compound 0.8 µM)	relative viability (Sulindac + Decitabine; first compound 2.53 µM)	relative viability (Sulindac + Decitabine; first compound 8 µM)	relative viability ([1]; first compound 0.005 µM)	relative viability ([1]; first compound 0.01581 µM)	relative viability ([1]; first compound 0.05 µM)	relative viability ([1]; first compound 0.1581 µM)	relative viability ([1]; first compound 0.5 µM)	relative viability ([2]; first compound 0.02 µM)	relative viability ([2]; first compound 0.2 µM)	relative viability ([2]; first compound 0.6325 µM)	relative viability ([2]; first compound 2 µM)	relative viability ([3]; first compound 0.02 µM)	relative viability ([3]; first compound 0.2 µM)	relative viability ([3]; first compound 0.6325 µM)	relative viability ([3]; first compound 2 µM)
LCLC-97TM1	0.208	0.263	0.225	0.247	0.232	0.611	0.254	0.286	0.378	0.293	0.53	1.03	0.396	0.12	0.181	0.203	0.209	0.188
BEN	0.745	0.845	0.697	0.685	0.814	0.288	0.288	0.356	0.236	0.167	0.779	0.869	0.655	0.655	0.934	0.93	0.946	0.938
NCI-H2085	0.497	0.556	0.545	0.525	0.5	0.244	0.257	0.271	0.235	0.242	1.09	1.13	0.995	0.738	0.412	0.607	0.563	0.563
LC-2-ad	0.954	0.945	0.57	0.823	0.9	0.488	0.188	0.193	0.194	0.141	1.01	0.914	0.598	0.276	1.02	0.894	0.552	0.349
NCI-H661	0.648	0.544	0.523	0.574	0.609	0.67	0.349	0.381	0.347	0.123	0.669	0.816	0.759	0.804	0.63	0.67	0.481	0.567
NCI-H1792	0.476	0.632	–	0.581	0.417	0.897	0.639	0.451	0.359	0.289	1.03	0.84	0.272	0.185	0.367	0.278	0.172	0.167
EPLC-272H	0.313	–	0.301	0.369	0.428	0.179	0.0602	0.0709	0.0723	0.103	0.891	0.733	0.376	0.254	0.263	0.262	0.242	0.198
NCI-H1437	0.667	0.619	0.547	0.591	0.568	0.391	0.208	0.285	0.173	0.134	–	0.218	0.144	0.128	0.364	0.247	0.22	0.18
EKVX	0.312	0.316	0.305	0.341	0.352	0.666	0.282	0.201	0.202	0.161	0.786	–	0.154	0.132	0.326	–	0.187	0.148
NCI-H1651	0.748	0.702	0.578	0.568	0.617	0.335	0.211	0.239	0.107	0.0833	1.05	0.873	0.464	0.406	0.879	0.684	0.325	0.267
HCC-15	0.708	0.625	0.548	0.543	0.661	0.494	–	0.229	0.11	0.0769	1.18	1.03	0.534	0.322	0.321	0.365	0.34	0.284
LCLC-103H	0.748	0.787	0.738	0.661	0.729	0.307	0.108	0.113	0.134	0.103	0.99	1.18	0.931	0.632	0.733	0.671	0.598	0.566
NCI-H2347	0.609	0.632	0.548	0.652	0.636	0.226	0.212	0.19	0.233	0.232	0.962	1.1	0.367	0.446	0.281	0.256	0.293	0.166
NCI-H1915	0.229	0.268	0.266	0.261	0.27	0.212	0.0927	0.204	0.0847	0.0869	0.717	1	0.915	0.765	0.28	0.325	0.253	0.283
NCI-H650	0.33	0.325	0.341	0.284	0.339	0.284	0.264	0.271	0.229	0.223	0.894	0.622	0.517	0.529	0.914	0.701	0.407	0.341
NCI-H596	0.894	0.982	–	1.2	1.1	0.7	0.467	0.276	0.226	0.183	1.14	0.794	0.694	0.597	0.845	0.649	0.632	0.479
HCC-366	0.388	0.317	–	0.334	0.412	0.981	–	0.22	0.0316	0.022	1.08	0.946	0.523	0.0524	0.332	0.238	0.14	0.0725
NCI-H2087	0.186	0.324	0.254	0.246	0.323	0.701	0.431	0.311	0.0727	0.0691	0.884	0.757	0.599	0.497	0.216	0.157	0.167	0.216

Cell Line	relative viability (Sulindac + Decitabine; first compound 0.08 µM)	relative viability (Sulindac + Decitabine; first compound 0.253 µM)	relative viability (Sulindac + Decitabine; first compound 0.8 µM)	relative viability (Sulindac + Decitabine; first compound 2.53 µM)	relative viability (Sulindac + Decitabine; first compound 8 µM)	relative viability ([1]; first compound 0.005 µM)	relative viability ([1]; first compound 0.01581 µM)	relative viability ([1]; first compound 0.05 µM)	relative viability ([1]; first compound 0.1581 µM)	relative viability ([1]; first compound 0.5 µM)	relative viability ([2]; first compound 0.02 µM)	relative viability ([2]; first compound 0.2 µM)	relative viability ([2]; first compound 0.6325 µM)	relative viability ([2]; first compound 2 µM)	relative viability ([3]; first compound 0.02 µM)	relative viability ([3]; first compound 0.2 µM)	relative viability ([3]; first compound 0.6325 µM)	relative viability ([3]; first compound 2 µM)
RERF-LC-KJ	0.667	0.706	0.608	0.63	0.751	0.416	0.364	0.223	0.192	0.201	1.24	1.17	1.14	0.939	0.949	0.811	0.838	0.7
HOP-62	0.214	0.222	0.229	0.217	0.246	0.343	0.164	0.109	0.124	0.0982	0.85	0.891	0.859	0.558	0.362	0.417	0.392	0.357
NCI-H2126	0.623	0.627	0.543	0.553	0.549	0.501	0.275	0.301	0.257	0.222	0.948	0.583	0.337	0.318	0.579	0.305	0.27	0.257
SW 1573	0.688	0.538	0.443	0.368	0.641	0.129	0.116	0.0863	0.0538	0.0496	1.08	1.1	0.922	0.638	0.576	0.631	0.497	0.306
SK-LU-1	0.691	0.642	0.53	0.647	0.673	0.183	–	–	0.102	0.1	1.12	1.34	1.18	0.981	0.458	0.598	0.435	0.464
H3255	0.577	0.662	0.503	0.566	0.615	0.271	0.247	0.255	0.19	0.248	0.804	0.867	0.684	0.544	0.664	0.716	0.687	0.567
EMC-BAC-2	0.994	1	0.888	0.934	1.08	0.213	0.197	0.198	0.167	0.152	1.16	1.17	1.1	1.02	0.934	1.05	0.914	0.879
NCI-H727	0.965	1.02	0.874	0.866	0.957	0.47	0.579	0.363	0.235	0.184	1	1.01	0.776	0.782	0.361	0.384	0.363	0.389
NCI-H1355	0.325	0.343	0.366	0.338	0.366	0.516	0.166	0.202	0.164	0.152	1.17	1.1	0.404	0.3	0.443	0.387	0.265	0.242
PC-3 [JPC-3]	0.777	0.791	0.838	0.77	0.855	–	0.424	0.375	0.235	0.204	0.841	0.84	0.762	0.643	0.784	0.823	0.782	0.661
NCI-H1650	0.4	0.495	0.421	0.378	0.473	0.24	0.225	0.166	0.127	0.119	0.195	0.187	0.185	0.174	0.745	0.532	0.33	0.254
NCI-H1734	0.524	0.522	0.435	0.523	0.496	0.309	–	0.136	0.1	0.116	0.853	1.06	0.723	0.494	0.709	0.682	0.584	0.415
NCI-H441	0.255	0.232	0.252	0.245	0.264	0.705	0.326	0.572	0.163	0.082	0.513	0.408	0.482	0.303	0.567	0.499	0.402	0.38
NCI-H838	0.497	0.476	0.425	0.45	0.507	0.267	0.203	0.225	0.177	0.178	0.732	0.794	0.637	0.281	0.482	0.579	0.373	0.246
NCI-H23	0.298	0.331	0.319	0.324	0.319	0.833	–	0.259	0.13	0.154	1.07	1.34	0.598	0.309	0.483	0.331	0.285	0.211
NCI-H647	0.392	0.51	0.361	0.442	0.426	0.0983	0.0707	0.0669	0.073	0.0532	0.925	1.15	0.992	0.61	0.444	0.479	0.406	0.393
NCI-H520	0.516	0.568	0.467	0.431	0.505	0.278	0.251	0.215	0.176	0.171	0.587	0.438	0.382	0.312	0.624	0.666	0.439	0.311
